# Reference: patent US20260240799A1, “TREATMENT OF PRIMARY BILIARY CHOLANGITIS” (Genfit, priority 2023, published 2026)
# “Also recorded” adds a separate entry of the source.
# How the values were obtained:
# [1] = test system: serum alkaline phosphatase (ALP); test: serum ALP change in phase 3 study on PBC (ELATIVE); type: in vivo, human; conditions: elafibranor 80 mg treatment group; PBC (placebo 3.2%)
# [2] = test system: patients with PBC; test: safety and tolerability in PBC patients; type: in vivo, human
# [3] = test system: participants with primary biliary cholangitis; test: PROMIS Fatigue SF 7a T-score in phase 3 trial NCT04526665 (ELATIVE); type: in vivo, human; set-up: key to PROMIS Fatigue T-score, observed mean / PROMIS Fatigue T-score, observed median: standardized T-score, mean 50, SD 10; higher = more fatigue; conditions: for Change from baseline in PROMIS Fatigue T-score, mean / Change from baseline in PROMIS Fatigue T-score, median / Change from baseline in PROMIS Fatigue T-score, LS means (MMRM) / Change from baseline in PROMIS Fatigue T-score, LS means difference with placebo (MMRM) / PROMIS Fatigue T-score, observed mean / PROMIS Fatigue T-score, observed median: 80 mg once daily
# Description: The patient's fatigue can be measured using the PROMIS Short Form—Fatigue 7a questionnaire (V1.0) to assess change from baseline in fatigue during treatment. The PROMIS Fatigue item banks assess a range of self-reported symptoms over the past seven days, from mild subjective feelings of tiredness to an overwhelming, debilitating, and sustained sense of exhaustion that likely decreases one's ability to execute daily activities and function normally in family or social roles. Fatigue is divided into the experience of fatigue (frequency, duration, and intensity) and the impact of fatigue on physical, mental, and social activities. PROMIS instruments are scored using item-level calibrations. The final score is represented by the T-score, a standardized score with a mean of 50 and a standard deviation (SD) of 10. A 1-point decrease of the PROMIS Fatigue T-score represents a meaningful change in fatigue. This improvement corresponds to changes in alertness and well-being that are easily noticeable. Likewise, a noticeable worsening corresponds to a 1-point increase of the PROMIS Fatigue T-score (Schattenberg et al.; “Evaluating Pruritus and Fatigue in Patients with Treatment-Refractory Primary Biliary Cholangitis” EASL 21-24 Jun. 2023).
# Participants aged 18 to 75 years, who had been diagnosed with primary biliary cholangitis according to established criteria, were recruited at 82 sites in 14 countries. Inclusion criteria were an alkaline phosphatase level of ≥1.67 times the upper limit of the normal range (ULN), and a total bilirubin level of ≤2 times the ULN. Prior to screening, eligible participants had received 13 to 15 mg/kg ursodeoxycholic acid treatment per day for at least 12 months (stable dose for at least 3 months) or were intolerant to ursodeoxycholic acid (no treatment for at least 3 months).
# In this double-blind, placebo-controlled, phase 3 trial, participants with an inadequate response or intolerance to ursodeoxycholic acid were randomized 2:1 to receive elafibranor 80 mg or placebo once daily. Participants receiving stable doses of ursodeoxycholic acid for at least three months prior to enrollment continued their treatment regimen throughout the trial. The overall double-blind treatment period consisted of two parts. In part one, all randomized patients received a minimum of 52 weeks of double-blind treatment. In part two, participants continued to receive double-blind treatment beyond Week 52 in a variable treatment period until all participants had completed their Week 52 assessment or until a maximum treatment duration of 104 weeks, whichever came first. The first database lock occurred after the last participant completed its Week 52 visit in the double-blind period. At the end of the double-blind period (lasting 52 to 104 weeks), participants could optionally enter an open-label extension where they would receive elafibranor 80 mg for up to five years.
# From September 2020 through May 2023, 161 participants were randomly assigned to receive elafibranor 80 mg (108 participants) or placebo (53 participants); these participants made up the intent-to-treat (ITT) and safety populations. The pruritus intent-to-treat population included 66 participants with moderate-to-severe pruritus (44 receiving elafibranor, 22 receiving placebo).
# The Patient Reported Outcome Measurement Information System (PROMIS®) is the product of a massive effort begun in 2004 and based on modern measurement theory, to address the need to develop precise, consensus measures of health outcome, including fatigue, suitable for use across chronic diseases in particular PBC. The PROMIS Fatigue Short Form 7a (PROMIS Fatigue SF 7a) is a seven-item questionnaire derived from the 95-item PROMIS Fatigue item bank. […]
# [4] = test system: patients with PBC; conditions: cited from earlier work
# [5] = Week 4, Pruritus ITT analysis set
# [6] = Week 13, Pruritus ITT analysis set
# [7] = Week 26, Pruritus ITT analysis set
# [8] = Week 39, Pruritus ITT analysis set
# [9] = Week 52, Pruritus ITT analysis set
compound,measurement,setting,value
"CSc1ccc(C(=O)C=Cc2cc(C)c(OC(C)(C)C(=O)O)c(C)c2)cc1 [Elafibranor, 2-(2,6-dimethyl-4-{3-[4-(methylsulfanyl)phenyl]-3-oxopropen-1-yl}phenoxy)-2-methylpropanoic acid]",mean relative change from baseline to endpoint in serum ALP,[1],−48.3%
same,safety and tolerability,[2],safe and well-tolerated
same,"effect on fatigue (PROMIS Fatigue SF 7a) compared to placebo, in words","[3]; 80 mg daily, participants with PBC",significative reduction; also recorded: improvement in fatigue
same,"Change from baseline in PROMIS Fatigue T-score, mean","[3]; Week 4, ITT analysis set",−1.66
same,"Change from baseline in PROMIS Fatigue T-score, median","[3]; Week 4, ITT analysis set",−1.60
same,"Change from baseline in PROMIS Fatigue T-score, mean",[3]; [5],−2.86
same,"Change from baseline in PROMIS Fatigue T-score, median",[3]; [5],−2.70
same,"Change from baseline in PROMIS Fatigue T-score, LS means (MMRM)","[3]; Week 13, ITT analysis set",−2.16
same,"Change from baseline in PROMIS Fatigue T-score, LS means difference with placebo (MMRM)","[3]; Week 13, ITT analysis set",−2.11
same,"Change from baseline in PROMIS Fatigue T-score, mean","[3]; Week 13, ITT analysis set",−2.24
same,"Change from baseline in PROMIS Fatigue T-score, median","[3]; Week 13, ITT analysis set",−1.50
same,"PROMIS Fatigue T-score, observed mean","[3]; Week 13, ITT analysis set",53.63
same,"PROMIS Fatigue T-score, observed median","[3]; Week 13, ITT analysis set",52.95
same,"Change from baseline in PROMIS Fatigue T-score, LS means (MMRM)",[3]; [6],−3.50
same,"Change from baseline in PROMIS Fatigue T-score, LS means difference with placebo (MMRM)",[3]; [6],−3.15
same,"Change from baseline in PROMIS Fatigue T-score, mean",[3]; [6],−3.54
same,"PROMIS Fatigue T-score, observed mean",[3]; [6],57.49
same,"PROMIS Fatigue T-score, observed median",[3]; [6],59.20
same,"Change from baseline in PROMIS Fatigue T-score, mean","[3]; Week 26, ITT analysis set",−2.23
same,"Change from baseline in PROMIS Fatigue T-score, median","[3]; Week 26, ITT analysis set",−1.55
same,"Change from baseline in PROMIS Fatigue T-score, mean",[3]; [7],−3.50
same,"Change from baseline in PROMIS Fatigue T-score, median",[3]; [7],−3.20
same,"Change from baseline in PROMIS Fatigue T-score, mean","[3]; Week 39, ITT analysis set",−2.41
same,"Change from baseline in PROMIS Fatigue T-score, median","[3]; Week 39, ITT analysis set",−1.45
same,"Change from baseline in PROMIS Fatigue T-score, mean",[3]; [8],−4.54
same,"Change from baseline in PROMIS Fatigue T-score, median",[3]; [8],−4.05
same,"Change from baseline in PROMIS Fatigue T-score, LS means (MMRM)","[3]; Week 52, ITT analysis set",−2.45
same,"Change from baseline in PROMIS Fatigue T-score, LS means difference with placebo (MMRM)","[3]; Week 52, ITT analysis set",−1.23
same,"Change from baseline in PROMIS Fatigue T-score, mean","[3]; Week 52, ITT analysis set",−2.75
same,"Change from baseline in PROMIS Fatigue T-score, median","[3]; Week 52, ITT analysis set",−2.80
same,"PROMIS Fatigue T-score, observed mean","[3]; Week 52, ITT analysis set",53.70
same,"PROMIS Fatigue T-score, observed median","[3]; Week 52, ITT analysis set",53.70
same,"Change from baseline in PROMIS Fatigue T-score, LS means (MMRM)",[3]; [9],−4.53
same,"Change from baseline in PROMIS Fatigue T-score, LS means difference with placebo (MMRM)",[3]; [9],−3.77
same,"Change from baseline in PROMIS Fatigue T-score, mean",[3]; [9],−4.58
same,"Change from baseline in PROMIS Fatigue T-score, median",[3]; [9],−4.20
same,"PROMIS Fatigue T-score, observed mean",[3]; [9],56.23
same,"PROMIS Fatigue T-score, observed median",[3]; [9],56.45
"CC[C@H]1[C@@H](O)[C@@H]2[C@H](CC[C@]3(C)[C@@H]([C@H](C)CCC(=O)O)CC[C@@H]23)[C@@]2(C)CC[C@@H](O)C[C@@H]12 [OCA, obeticholic acid]",fatigue as side effect of treatment,[4],one of the most common side effects
